Square brackets hold non-standard residues; d marks the D form. Peptide text beside a SMILES is read from it. Gly(N-(CH2)6NH2) = NCCCCCCNCC(=O)O; Gly(N-2-aminoethyl) = NCCNCC(=O)O; Nspe = C[C@H](NCC(=O)O)c1ccccc1; Nphe = O=C(O)CNCc1ccccc1; Nlys = NCCCCNCC(=O)O
Experiments:
[1] = test system: E. coli, P. aeruginosa, S. aureus and S. epidermidis; type: cell-based
Procedure, shortened: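 MIC by microdilution, Iso-sensitest broth, 37 °C/16 h shaking. Inoc.: A650 0.07 → 1:10. Cpd final 2–100 µM, 2-fold series. Absorbance read-out, n=3.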

[2] = design: method as in PMID 18287037; conditions: cited from earlier work
[3] = test system: NIH 3T3 murine fibroblasts; design: method as in PMID 26849681; conditions: in vitro mammalian assays; cited from earlier work

Row | Compound | MICs against the bacteria tested [1] [µM] | 50% haemolytic dose (HD50) [2] [µM] | observed toxicity against NIH 3T3 murine fibroblasts [3] [µM]
1 | NCCCCCCNCC(=O)N(CC(=O)N(CC(=O)N(CCCCCCN)CC(=O)N(CC(=O)N(CC(N)=O)Cc1ccccc1)Cc1ccccc1)Cc1ccccc1)Cc1ccccc1 [Peptoid 3, (NahNpheNphe)2] (H-[Gly(N-(CH2)6NH2)][Nphe][Nphe][Gly(N-(CH2)6NH2)][Nphe][Nphe]-NH2) | 100 |  | 
2 | NCCCCNCC(=O)N(CC(=O)N(CC(=O)N(CCCCN)CC(=O)N(CC(=O)N(CC(N)=O)Cc1ccccc1)Cc1ccccc1)Cc1ccccc1)Cc1ccccc1 [Peptoid 6, (NLysNpheNphe)2] (H-[Nlys][Nphe][Nphe][Nlys][Nphe][Nphe]-NH2) | 100 |  | 
3 | NCCNCC(=O)N(CC(=O)N(CC(=O)N(CCN)CC(=O)N(CC(=O)N(CC(N)=O)Cc1ccccc1)Cc1ccccc1)Cc1ccccc1)Cc1ccccc1 [Peptoid 9, (NaeNpheNphe)2] (H-[Gly(N-2-aminoethyl)][Nphe][Nphe][Gly(N-2-aminoethyl)][Nphe][Nphe]-NH2) | 100 |  | 
4 | C[C@@H](c1ccccc1)N(CC(N)=O)C(=O)CN(C(=O)CN(CCCCCCN)C(=O)CN(C(=O)CN(C(=O)CNCCCCCCN)[C@@H](C)c1ccccc1)[C@@H](C)c1ccccc1)[C@@H](C)c1ccccc1 [Peptoid 12, (NahNspeNspe)2] | 100 |  | 
5 | C[C@@H](c1ccccc1)N(CC(N)=O)C(=O)CN(C(=O)CN(CCCCN)C(=O)CN(C(=O)CN(C(=O)CN(CCCCN)C(=O)CN(C(=O)CN(C(=O)CN(CCCCN)C(=O)CN(C(=O)CN(C(=O)CNCCCCN)[C@@H](C)c1ccccc1)[C@@H](C)c1ccccc1)[C@@H](C)c1ccccc1)[C@@H](C)c1ccccc1)[C@@H](C)c1ccccc1)[C@@H](C)c1ccccc1)[C@@H](C)c1ccccc1 [Peptoid 13, (NLysNspeNspe)4] (H-[Nlys][Nspe][Nspe][Nlys][Nspe][Nspe][Nlys][Nspe][Nspe][Nlys][Nspe][Nspe]-NH2) |  | 100 | 5.1
6 | C[C@@H](c1ccccc1)N(CC(N)=O)C(=O)CN(C(=O)CN(CCCCN)C(=O)CN(C(=O)CN(C(=O)CNCCCCN)[C@@H](C)c1ccccc1)[C@@H](C)c1ccccc1)[C@@H](C)c1ccccc1 [Peptoid 15, (NLysNspeNspe)2] (H-[Nlys][Nspe][Nspe][Nlys][Nspe][Nspe]-NH2) | 100 |  | 
7 | C[C@@H](c1ccccc1)N(CC(N)=O)C(=O)CN(C(=O)CN(CCN)C(=O)CN(C(=O)CN(C(=O)CNCCN)[C@@H](C)c1ccccc1)[C@@H](C)c1ccccc1)[C@@H](C)c1ccccc1 [Peptoid 18, (NaeNspeNspe)2] | 100 |  | 

Reference: paper PMC6072100, “Exploring the links between peptoid antibacterial activity and toxicity” (MedChemComm, 2017)
